# Reference: PMC6015065, “Linear Cyclodextrin Polymer Prodrugs as Novel Therapeutics for Niemann-Pick Type C1 Disorder” (Scientific Reports, 2018)
# Read-outs that look alike come from different tables or passages of the source.
# Assays:
# [1] = system: Npc1^nmf164 mice; experiment: Early intervention efficacy study (treatment from 2 weeks of age); format: in vivo; settings: for Mean bodyweight: Npc1^nmf164 mice, 800 mg/kg SC weekly
# Method: Control group mice received plain PBS (sham, group).
# The body weight was recorded weekly and a score ranging from 0 to 5 was assigned to each mouse (Table 3) as previously performed. The motor co-ordination phenotype was assessed by the balance beam test every two weeks as previously described. Briefly, the mouse was placed perpendicularly at the center of a horizontal round beam (covered with paper tape, outer diameter 2 cm, length 1 m, divided into 10 sections and placed 50 cm above a padded surface) and the number of beam sections crossed in a 180 s time interval was recorded. Although the test relies on muscle strength and limb tone, it is well validated for the assessment of fine motor coordination and balance. […] The end-point of data collection was established as mouse weight approaching 13 g[40].
# [2] = Pharmacokinetics after single subcutaneous dose (500 mg/kg); format: in vivo, BALB/c mice; settings: BALB/c, mouse, plasma
# Method: (§1) LC/MS/MS (HPβCD) and HPLC-UV (ORX-301) were used for analysis in the studies. The bioanalytical method for HPβCD was linear, accurate, and precise in the concentration range of 5.4 and 500 µg/ml, with an LLOQ = 5.4 µg/ml, and met all the acceptance criteria.
# (§2) Pharmacokinetic analysis and MTD studies were carried out in BALB/c mice purchased from Taconic Biosciences. Protocols and procedures of these studies were approved by the Institutional Animal Ethics Committee based on CPCSEA (India) guidelines.
# (§3) Plasma was harvested and stored at −80 °C.
# [3] = in vivo; settings: BALB/c, mouse, sc, 500 mg/kg; for AUC(0-t): AUClast; for Kp: Tissue/Plasma Ratio
# Method: The vehicle used for dissolution of test compounds was 0.9% Normal Saline. […] The formulations were prepared on the day of the study. The test compounds were administered at 100 mg/kg for the IV study and 500 mg/kg for the SC study. For the tissue distribution study, again 500 mg/kg was administered by the SC route.
# Post dose, blood, or the relevant tissue in the case of the distribution study was collected at time points of 2 min, 5 min, 15 min, 30 min, 1 h, 2 h, 4 h, 24 h, 36 h and 48 h. From each mouse terminal blood samples were collected by cardiac puncture under isoflurane anaesthesia. The blood was collected in 2 ml Eppendorf tubes containing 0.020 ml of 10% K2EDTA, mixed gently and placed in ice before centrifugation. Plasma was harvested and stored at −80 °C. […] The PK analysis was performed using Non-compartmental methods in Phoenix WinNonlin 6.4 [Pharsight, Certara]. The mean concentration-time data were used for computing the PK parameters. The AUC was computed using the linear up-log down method. The following NCA parameters were estimated for the IV PK: Systemic Clearance [CL], Vss [Volume of distribution at steady state], first order elimination rate constant [ke], terminal half-life [t1/2], AUC0-t, AUC0-∞. For the SC PK study: Cmax, tmax, ke, t1/2, AUC0-t, AUC0-∞ and the absolute SC bioavailability [F] was estimated using the equation: F(%)=(AUCsc/AUCiv)∗(Doseiv/Dosesc)∗100
# [4] = cited from earlier work
# [5] = Pharmacokinetics after single intravenous dose (100 mg/kg); format: in vivo, BALB/c mice; settings: BALB/c, mouse
# Method: as §1, §2, §3
# [6] = system: Npc1^nih/nih mice; settings: cited from earlier work
# [7] = system: Npc1^nmf164 mice; parameters: method as in PMID 26888431; settings: HPβCD full dose 4000 mg/kg; cited from earlier work
# [8] = system: Calbindin in Purkinje cells of Npc1^nmf164 mice; experiment: Calbindin detection by immunofluorescence on cerebellar sections; format: in vivo; settings: 10 weeks-old Npc1^nmf164 mice, 800 mg/kg SC weekly from 2 weeks
# Method: Sham-treated control mice were injected with plain PBS.
# Brains were quickly dissected, fixed overnight at 4 °C in 4% PFA and processed as previously described[52]. Briefly, fixed brains were dehydrated by incubation in 15–30% sucrose in PBS, embedded in FSC 22 Clear Frozen Section Compound (Leica Biosystems, Milano, Italy) and serially sectioned (slice thickness 10 µm) using a cryostat (Leica CM 1900). Sagittal sections were mounted on X-tra Adhesive glass slides (Leica biosystems). Sections were processed for immunofluorescence using a mouse monoclonal Calbindin antibody (Anti-Calbindin D28K, Sigma, Milan, Italy; 1:500 dilution in PBS) as routinely performed in our lab. A permeabilization step performed by incubating sections in 0.1% Triton X-100 in PBS for 10 min was followed by a 3 h incubation in a blocking solution containing 5% goat serum, 1% BSA, 0.2% Triton X-100 in PBS. Sections were then incubated over night with a 1:500 primary antibody dilution in PBS and, after several washes with PBS, with a TRITC-conjugated anti-mouse secondary antibody (Zymed-Thermo Fisher Scientific, Milan, Italy).
# [9] = 800 mg/kg SC weekly from 2 weeks of age
smiles,measurement,setting,value
"CC(O)COC[C@H]1O[C@@H]2O[C@H]3[C@H](O)[C@@H](O)[C@@H](O[C@H]4[C@H](O)[C@@H](O)[C@@H](O[C@H]5[C@H](O)[C@@H](O)[C@@H](O[C@H]6[C@H](O)[C@@H](O)[C@@H](O[C@H]7[C@H](O)[C@@H](O)[C@@H](O[C@H]8[C@H](O)[C@@H](O)[C@@H](O[C@H]1[C@H](O)[C@H]2O)O[C@@H]8COCC(C)O)O[C@@H]7COCC(C)O)O[C@@H]6COCC(C)O)O[C@@H]5COCC(C)O)O[C@@H]4COCC(C)O)O[C@@H]3COCC(C)O (stereo partly drawn) [HPβCD, 2-hydroxypropyl-β-cyclodextrin]",body weight loss progression,[1]; [9],less severe and slower progressing weight loss
same,improvement of performance in the balance beam test,[1]; [9],only temporarily observed up to 9-weeks of age
same,mean lifespan,[1]; [9],150 ± 2.55 days
same,improvement in mean survival,"[1]; 800 mg/kg SC weekly from 2 weeks of age, vs sham-treated",35%
same,Mean bodyweight,[1]; post-natal week 2,7.43 ± 0.30 g
same,Mean bodyweight,[1]; post-natal week 3,10.37 ± 0.33 g
same,Mean bodyweight,[1]; post-natal week 4,13.31 ± 0.53 g
same,Mean bodyweight,[1]; post-natal week 5,17.24 ± 0.65 g
same,Mean bodyweight,[1]; post-natal week 6,18.58 ± 0.75 g
same,Mean bodyweight,[1]; post-natal week 7,20.25 ± 0.84 g
same,Mean bodyweight,[1]; post-natal week 8,20.85 ± 0.94 g
same,Mean bodyweight,[1]; post-natal week 9,20.55 ± 1.03 g
same,Mean bodyweight,[1]; post-natal week 10,19.92 ± 0.81 g
same,bioavailability,"[2]; subcutaneous 500 mg/kg vs intravenous 100 mg/kg, read-out: Absolute Bioavailability",42%
same,AUC(0-inf),"[2]; sc, subcutaneous 500 mg/kg",4140 µg·h/mL
same,AUC(0-t),"[2]; sc, subcutaneous 500 mg/kg",4020 µg·h/mL
same,Cmax,"[2]; sc, subcutaneous 500 mg/kg",4610 µg/mL
same,Tmax,"[2]; sc, subcutaneous 500 mg/kg",4.98 min
same,half-life,"[2]; sc, subcutaneous 500 mg/kg",16.7 h
same,AUC(0-t),[3]; kidney,2950 µg·h/mL
same,AUC(0-t),[3]; liver,127 µg·h/mL
same,AUC(0-t),[3]; spleen,828 µg·h/mL
same,Kp,[3]; kidney,0.63
same,Kp,[3]; liver,0.03
same,Kp,[3]; spleen,0.18
same,fraction that reaches the brain upon systemic administration,"[4]; ref 25, 53",0.2–1.5%
same,fraction that reaches the brain upon systemic administration,[4]; ref 25,less than 0.2%
same,concentration at 24 h,"[5]; in vivo, iv, 100 mg/kg",4.95 µg/mL
same,tlast,"[5]; in vivo, iv, 100 mg/kg",24 h
same,bioavailability,"[5]; plasma, 500 mg/kg, printed under the Intravenous columns, read-out: Absolute Bioavailability",42%
same,half-life,"[5]; plasma, iv, 100 mg/kg, intravenous 100 mg/kg",~14 h
same,clearance,"[5]; plasma, single IV dose 100 mg/kg",0.85 mL/min/kg
same,Vd,"[5]; plasma, single IV dose 100 mg/kg, read-out: Vss",0.18 L/kg
same,AUC(0-inf),"[5]; intravenous 100 mg/kg, plasma",1960 µg·h/mL
same,AUC(0-t),"[5]; intravenous 100 mg/kg, plasma",1860 µg·h/mL
same,Tmax,"[5]; intravenous 100 mg/kg, plasma",4.98 min
same,effect on lifespan,"[6]; single injection at day 49, Npc1^nih/nih mice",did not significantly improve the lifespan
same,dosage required for improvement of survival,"[6]; weekly injections started at day 42, Npc1^nih/nih mice",at least 1000 mg/kg
same,mean lifespan,[7],170 to 180 days
same,Calbindin staining of Purkinje cells,[8],markedly reduced Calbindin staining
